Measured values published in patent US11850238B2, “Use of a thienopyridone derivative in the treatment of adrenoleukodystrophy or adrenomyeloneuropathy” (POXEL, priority 2020, dated 2023).

How the values were obtained:
[1] = tested on: AMN human patient-derived primary fibroblasts; experiment: Hexacosanoic acid (VLCFA) level in AMN patient-derived fibroblasts, LC-MS; assay type: cell-based
Procedure: (§1) In order to compare the efficacy of PXL770 and metformin to lower very long chain fatty acids (VLCFA) in vitro, the study focuses on the level assessment of the hexacosanoic acid, which is the most prevalent VLCFA, in healthy control cells and in AMN human patient-derived primary fibroblasts. The cell lines were obtained from Coriell Cell Repositories. Fibroblasts were cultured in DMEM with 15% FBS. The cultures were split in 1:5 ratio. Fibroblasts from healthy patients were used as control. All treatments were in complete media containing fetal bovine serum (FBS, 15%). All cultured cells were maintained at 37° C. in 5% CO2.
(§2) VLCFA content was then measured as follows. Samples are adjusted to a final volume of 0.5-1 ml with LC-MS grade water and spiked with 10 ng of Lignoceric acid-d4 as an internal standard. The sample is acidified to pH 3-4 with dilute hydrochloric acid and extracted with isooctane-ethyl acetate (9:1) three times with equal volume. The extract is dried under nitrogen and the residue is reconstituted in methanol-water-ammonium acetate (75:25:10 mM).
Total fatty acids: After preparing the samples with internal standard as described above for free fatty acids, aqueous sodium hydroxide is added to a final concentration of 1 M. The mixture is incubated at 37° C. in dark under nitrogen for 3 h. The samples are then acidified, extracted, and reconstituted as described above.
(§3) LC-MS analysis of fatty acids: The reconstituted fatty acid extracts are subjected to HPLC on Targa C8 column (2×10 mm) using methanol-aqueous ammonium acetate (10 mM) solvent mixture. The column is eluted with a gradient of methanol (75 to 90%) over 8 min at a flow rate of 0.25 ml/min. The column eluent is directly introduced to mass analyzer (QTRAP5500) and monitored for fatty acids using published pseudo MRM method. Under these conditions, the VLCFA elute between 5 and 8 min. Each fatty acid is quantitated against the added internal standard.
The study planned different groups of patients. First, the evolution of hexacosanoic acid in fibroblasts is monitored in healthy control cells and in AMN human patient-derived primary fibroblasts; and in a second time a treatment of PXL770 was assigned to AMN human-derived primary fibroblasts in culture at different doses (PXL770: 0.1, 0.5, 1, 2, 3.5 and 5 μM; metformin: 100, 200, 300 and 400 μM) for one week and the level of hexacosanoic acid was measured.
The experiment described in Example 3 was reproduced with various thienopyridone compounds, namely: • PXL770: potassium 2-chloro-3-(5-hydroxytetralin-6-yl)-6-oxo-5-phenyl-7H-thieno[2,3-b]pyridin-4-olate • PXL700: 2-chloro-4-hydroxy-3-indan-5-yl-5-(3-pyridyl)-7H-thieno[2,3-b]pyridin-6-one • PXL702: 2-chloro-4-hydroxy-3-(4-hydroxyindan-5-yl)-5-phenyl-7H-thieno[2,3-b]pyridin-6-one • PXL695: 2-chloro-5-(3-fluorophenyl)-4-hydroxy-3-(4-hydroxyindan-5-yl)-7H-thieno[2,3-b]pyridin-6-one, • each tested at concentrations from 0.1 to 5 μM.
A one-way ANOVA with Dunnett's multiple comparison test was performed to assess the effect of PXL770 on brain's VLCFAs (**** p<0.0001, *** p<0.001). A Kruskal-Wallis test with Dunn's multiple comparison test was performed to assess the effect of PXL770 on plasma's VLCFAs (**** p<0.0001, […]).

[2] = tested on: ABCD2; experiment: Western blot of ABCD2 expression in ALD-KO mouse brain cortex mixed glial cells; assay type: cell-based; conditions: vs non-treated, FIG. 4
Procedure: (§4) The cells were washed with cold Tris-buffered saline (20 mM Trizma base and 137 mM NaCl, pH 7.5) and lysed in 1×SDS sample-loading buffer (62.5 mM Trizma base, 2% [w/v] SDS, 10% glycerol), and after sonication and centrifugation at 15,000 g for 5 min, the supernatant was used for the immunoblot assay. The protein concentration of samples was determined with the detergent compatible protein assay reagent (Bio-Rad) using BSA as the standard. The sample was boiled for 3 min with 0.1 volumes of 10% β mercaptoethanol and 0.5% bromphenol blue mix. Then, 40 μg of total cellular protein was resolved by electrophoresis on 8 or 12% polyacrylamide gels, electrotransferred and blocked with Tween 20-containing Tris-buffered saline (TBST; 10 mM Trizma base, pH 7.4, 1% Tween 20, and 150 mM NaCl) with 5% skim milk. After incubation with antibodies against ABCD2, ABCD3, and (β-actin at 4^0 overnight, the membranes were then washed with TBST and incubated with horseradish peroxidase-conjugated anti-rabbit or mouse IgG for 1 h at room temperature. The membranes were detected by autoradiography using ECL-plus (Amersham Biosciences) after washing with TBST buffer.
The same experimental protocol as in example 4 was performed for ALD-KO mouse brain cortex mixed glial cells. This model is mainly a model for AMN. […]

[3] = tested on: ABCD2; experiment: Western blot of ABCD2 expression in AMN fibroblasts; assay type: cell-based, human; conditions: AMN fibroblasts, 5, 10, 25 μM, vs control and untreated AMN fibroblasts; FIG. 2
Procedure: More specifically, protein extraction was performed as follows.
as §4
The experiments described in Examples 4 and 6 were performed with metformin by the same lab and described by Singh et al. in Journal of Neurochemistry, 2016; 138, 86-100.

[4] = tested on: AMN human patient-derived primary lymphocytes; experiment: Hexacosanoic acid (VLCFA) level in AMN patient-derived lymphocytes, LC-MS; assay type: cell-based
Procedure: as §1, with “show” for “compare”, “PXL770” for “PXL770 and metformin”, “lymphocytes.” for “fibroblasts.”, “Lymphocytes” for “Fibroblasts”, “RPMI-1640” for “DMEM”, “10% fetal bovine serum (FBS).” for “15% FBS.”
as §2
Total fatty acids: After preparing the samples with internal standard as described above for free fatty acids, aqueous sodium hydroxide is added to a final concentration of 1 M. The mixture is incubated at 37° C. in dark under nitrogen for 3 h. […]
as §3, with “The column is eluted with a gradient of methanol (75 to 90%) over 8 min at a flow rate of 0.25 ml/min.” left out, “Under these conditions, the VLCFA elute between 5 and 8 min.” left out
First, the evolution of hexacosanoic acid in lymphocytes is monitored in healthy control cells and in AMN human patient-derived primary lymphocytes; and in a second time a treatment of PXL770 was assigned to AMN human-derived primary lymphocytes in culture at different concentrations (5 μM, 10 μM, 25 μM, 50 μM) for one week and the level of hexacosanoic acid was measured. […]

**Q.** Which results are given for `O=c1[nH]c2sc(Cl)c(-c3ccc4c(c3O)CCCC4)c2c([O-])c1-c1ccccc1.[K+]` [PXL770, monohydrate potassium salt of 2-chloro-4-hydroxy-3-(5-hydroxytetralin-6-yl)-5-phenyl-7H-thieno[2,3-b]pyridin-6-one]?
**A.** potency and efficacy compared to metformin ([1]; AMN fibroblasts, PXL770 0.1-5 μM vs metformin 100-400 μM, one week, FIG. 10): much higher potency and efficacy; level of hexacosanoic acid ([1]; AMN fibroblasts, increasing doses 0.1-5 μM, one week, FIG. 10): decreases; VLCFA levels ([1]; AMN patient-derived fibroblasts, concentrations from 0.1 to 5 μM, FIG. 14): comparable decrease; expression of ABCD2 (Western blot) [2]: overexpression; expression of ABCD2 (Western blot) [3]: overexpression; level of hexacosanoic acid ([4]; AMN lymphocytes, all doses tested (5, 10, 25, 50 μM), one week, FIG. 1): strongly decreases; level of hexacosanoic acid compared to healthy controls ([4]; AMN lymphocytes, doses of 5 and 50 μM, one week, FIG. 1): same level as that present in lymphocytes of healthy controls; VLCFA content, normalization ([4]; AMN patient cells, 5 μM): normalization effect
